As a reminder, the Papp A→B is how fast a substance crosses the layer from the apical side. What is called Papp B→A is how fast a substance crosses the layer from the basolateral side. One may read the Ki as a dissociation constant, usually derived from enzyme kinetics or from competition with a known ligand. A higher Ki goes with lower affinity. Broadly, the Emax is the size of the effect at its maximum, as opposed to the concentration needed. The EC50 is the concentration that produces a half-maximal response. By inhibition is commonly meant the change of the read-out against control, counted positive when it falls.

Data set [1] is described as follows: Drug transport (BBB permeability) in Caco-2 monolayer. The format is in vitro ADME. The note with it: human; for efflux ratio at 120 min: Caco-2, bidirectional permeability ratio, read-out: P app (BA/AB); for Papp A→B at 120 min / Papp B→A at 120 min: Caco-2 monolayer, 1 × 10^–4 M. As to the method: (§1) To validate the early predictions from the CNS-MPO and BOILED-egg models (Figure ), we experimentally assessed the BBB permeability and P-gp interaction of the selected CB2R agonists. For these studies, two pairs of amide enantiomers (18p and 18o, 18e, and 18f) were selected, and the evaluations were conducted using established protocols previously published by our group. Key parameters measured included the permeability coefficients (P appBA and P appAB), the bidirectional permeability ratio (BA/AB), and the degree of interaction with P-gP, as detailed in Table .
Caco-2 cells were grown in Dulbecco’s high-glucose modified eagle medium, composed of 10% fetal bovine serum, 2 mM of glutamine, 100 U/mL of penicillin, and 0.1 mg/mL of streptomycin (all components purchased from Corning, Milan, Italy) in a humidified incubator at 37 °C with a 5% CO2 atmosphere. The experiment started with the preparation of the Caco-2 monolayer, which occurred by seeding the cells (20,000/well) in Millicell plates (Millipore, Milan, Italy). Its growth was followed for 21 days by changing the medium occasionally and measuring its transepithelial electrical resistance (TEER) daily using an epithelial voltohmmeter (Millicell-ERS) until a TEER value >240 ohms × cm^2 was reached. After 21 days, the plate was washed twice with Hank’s balanced salt solution (HBSS) (Invitrogen). After the second wash, the wells were filled with buffer, and the plate was kept at 37 °C for 30 min. After the incubation time, the HBSS buffer was replaced with the solutions of the compounds to be tested at a concentration of 1 × 10^–4 M. The plates were placed in an incubator at 37 °C for 120 min. The apparent permeability (P app), in units of nm s^–1, was calculated as previously reported. ,
Background: Passage across Caco-2 layers is used to estimate intestinal permeability.

The next data set deals with P-glycoprotein (P-gp) (Homo sapiens, UniProt P08183). Kind of data set: P-gp interaction, Calcein-AM experiment. It counts as cell-based. The note with it: for P-gp interaction % at 100 μM: inhibition at 100 μM; for EC50: Calcein-AM. As to the method:
as §1
This experiment was carried out as described by Contino et al. with minor modifications. Each cell line (30,000 cells per well) was seeded into black CulturePlate 96/wells plate with 100 μL medium and allowed to become confluent overnight. 100 μL of test compounds were solubilized in culture medium and added to monolayers, with final concentrations ranging from 0.1 to 100 μM. 96/Wells plate was incubated at 37 °C for 30 min. Calcein-AM was added in 100 μL of Phosphate Buffered Saline (PBS) to yield a final concentration of 2.5 μM and plate was incubated for 30 min. Each well was washed 3 times with ice cold PBS. Saline buffer was added to each well and the plate was read with Victor3 (PerkinElmer) at excitation and emission wavelengths of 485 and 535 nm, respectively. In these experimental conditions Calcein cell accumulation in the absence and in the presence of tested compounds was evaluated and fluorescence basal level was estimated with untreated cells. In treated wells the increase of fluorescence with respect to basal level was measured. EC50 values were determined by fitting the fluorescence increase percentage versus log[dose].

Data set [2] addresses T1, CB2R (Homo sapiens, UniProt P34972). The data set is described as follows: CB2R radioligand binding competition ([3H]CP55,940). On the set-up: expressed in transfected cells; host or cells: HEK-293T (HEK-CB2 cell line). The note with it: for Ki: displacement of [3H]CP 55,940, membranes of HEK-293T cells, n = 3; for SI Ki CB1R/Ki CB2R: selectivity index, affinity ratio.
Data set [3] has as its target T1, CB2R. Kind of data set: CB2R cAMP determination after forskolin stimulation in transfected HEK-293T cells. The format is cell-based. Set-up: expressed in transfected cells; host or cells: HEK-293T, transient transfection (PEI). The note with it: for Emax: HEK-293T, normalized to maximal efficacious concentration of CP 55,940, read-out: CB2R Emax AMPc (converted); for EC50: transfected HEK-293T cells, forskolin-stimulated cAMP, read-out: CB2R EC50 AMPc. As to the method: (§2) Initially we tested their ability to modify CB2R-mediated cAMP accumulation, providing insights into their functional behavior as either agonists or antagonists (Table ). Moreover, the signaling profiles of selected ligands were investigated through their impact on β-arrestin recruitment and Mitogen-Activated Protein Kinase (MAPK) phosphorylation pathway, enabling a more comprehensive evaluation of their intracellular signaling profiles (Table ).
HEK-293T cells were grown in Dulbecco’s Modified Eagle’s Medium (DMEM) medium (Gibco, Paisley, Scotland, United Kingdom) supplemented with 2 mM L-glutamine, 100 U/mL penicillin/streptomycin, MEM Non-Essential Amino Acids Solution (1/100) and 5% (v/v) heat inactivated Fetal Bovine Serum (FBS) (Invitrogen, Paisley, Scotland, United Kingdom). Cells were maintained in a humid atmosphere of 5% CO2 at 37 °C. Cells were transiently transfected with the PEI (Polyethylenimine, Sigma, St. Louis, MO, United States) method as previously described and used for functional assays 48 h later.
Signaling experiments have been performed as previously described. Two hours before initiating the experiment, HEK-293T cell-culture medium was replaced by serum-starved DMEM medium. Then, cells were detached, resuspended in growing medium containing […] zardaverine (Tocris, Bristol, U.K.) and placed in 384-well microplates (2500 cells/well). Cells were pretreated (15 min) with cannabinoid compounds (1 nM to 100 μM) -or vehicle- before adding […] forskolin (Tocris, Bristol, U.K.) to induce cAMP accumulation. Readings were performed after 15 min incubation at 25 °C. Homogeneous Time Resolved Fluorescence (HTRF) energy transfer measures were performed using the Lance Ultra cAMP kit (PerkinElmer, Waltham, MA, United States). Fluorescence at 665 nm was analyzed in a PHERA star Flagship microplate reader equipped with an HTRF optical module (BMG Lab Technologies, Offenburg, Germany).

Data set [4] deals with T1, CB2R. The data set is described as follows: CB2R MAPK phosphorylation. The note with it: for Emax: normalized to CP 55,940. It counts as cell-based. On the set-up: expressed in transfected cells; host or cells: HEK-293T, transient transfection (PEI).
From the text: as §2
(§3) JWH-133, a well-known nonbiased (balanced) agonist, was employed as the reference for comparing the signaling profiles of the tested compounds. An operational model analysis was applied to quantify the functional bias of each CB2R-selective agonist. This involved calculating the bias factor by comparing the signaling pathways: β-arrestin versus cAMP, MAPK versus cAMP, and β-arrestin versus MAPK.

The target in data set [5] is T1, CB2R. Kind of data set: Signaling bias quantification (relative activity model, JWH-133 reference). It counts as cell-based. The note with it: in parentheses. On the set-up: expressed in transfected cells; host or cells: HEK-293T, transient transfection (PEI).
From the text: as §3

For the next data set, the target named is CB1R (Homo sapiens, UniProt P21554). Kind of data set: CB1R radioligand binding competition ([3H]CP55,940). Set-up: host or cells: CHO-CB1 C3 cell line. The note with it: for CB1R % at 1 μM: percentage displacement of specific [3H]CP 55,940 binding at 1 μM, n = 2.
Chain of CB1R (P21554 whole entry): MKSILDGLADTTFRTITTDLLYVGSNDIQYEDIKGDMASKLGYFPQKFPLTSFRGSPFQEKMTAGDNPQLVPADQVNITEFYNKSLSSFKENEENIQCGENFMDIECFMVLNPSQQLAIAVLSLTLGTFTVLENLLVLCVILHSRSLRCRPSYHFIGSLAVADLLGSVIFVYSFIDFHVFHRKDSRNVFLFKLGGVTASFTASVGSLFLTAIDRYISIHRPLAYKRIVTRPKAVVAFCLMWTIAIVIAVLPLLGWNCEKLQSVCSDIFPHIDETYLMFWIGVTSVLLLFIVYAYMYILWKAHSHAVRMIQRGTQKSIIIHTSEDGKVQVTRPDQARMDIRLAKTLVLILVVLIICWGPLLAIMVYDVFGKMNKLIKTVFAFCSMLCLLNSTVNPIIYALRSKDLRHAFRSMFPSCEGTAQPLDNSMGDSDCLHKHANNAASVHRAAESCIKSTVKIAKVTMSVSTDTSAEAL

A value given as a limit tells only on which side of the number the result lay.

Chain of P-glycoprotein (P-gp) (P08183 whole entry): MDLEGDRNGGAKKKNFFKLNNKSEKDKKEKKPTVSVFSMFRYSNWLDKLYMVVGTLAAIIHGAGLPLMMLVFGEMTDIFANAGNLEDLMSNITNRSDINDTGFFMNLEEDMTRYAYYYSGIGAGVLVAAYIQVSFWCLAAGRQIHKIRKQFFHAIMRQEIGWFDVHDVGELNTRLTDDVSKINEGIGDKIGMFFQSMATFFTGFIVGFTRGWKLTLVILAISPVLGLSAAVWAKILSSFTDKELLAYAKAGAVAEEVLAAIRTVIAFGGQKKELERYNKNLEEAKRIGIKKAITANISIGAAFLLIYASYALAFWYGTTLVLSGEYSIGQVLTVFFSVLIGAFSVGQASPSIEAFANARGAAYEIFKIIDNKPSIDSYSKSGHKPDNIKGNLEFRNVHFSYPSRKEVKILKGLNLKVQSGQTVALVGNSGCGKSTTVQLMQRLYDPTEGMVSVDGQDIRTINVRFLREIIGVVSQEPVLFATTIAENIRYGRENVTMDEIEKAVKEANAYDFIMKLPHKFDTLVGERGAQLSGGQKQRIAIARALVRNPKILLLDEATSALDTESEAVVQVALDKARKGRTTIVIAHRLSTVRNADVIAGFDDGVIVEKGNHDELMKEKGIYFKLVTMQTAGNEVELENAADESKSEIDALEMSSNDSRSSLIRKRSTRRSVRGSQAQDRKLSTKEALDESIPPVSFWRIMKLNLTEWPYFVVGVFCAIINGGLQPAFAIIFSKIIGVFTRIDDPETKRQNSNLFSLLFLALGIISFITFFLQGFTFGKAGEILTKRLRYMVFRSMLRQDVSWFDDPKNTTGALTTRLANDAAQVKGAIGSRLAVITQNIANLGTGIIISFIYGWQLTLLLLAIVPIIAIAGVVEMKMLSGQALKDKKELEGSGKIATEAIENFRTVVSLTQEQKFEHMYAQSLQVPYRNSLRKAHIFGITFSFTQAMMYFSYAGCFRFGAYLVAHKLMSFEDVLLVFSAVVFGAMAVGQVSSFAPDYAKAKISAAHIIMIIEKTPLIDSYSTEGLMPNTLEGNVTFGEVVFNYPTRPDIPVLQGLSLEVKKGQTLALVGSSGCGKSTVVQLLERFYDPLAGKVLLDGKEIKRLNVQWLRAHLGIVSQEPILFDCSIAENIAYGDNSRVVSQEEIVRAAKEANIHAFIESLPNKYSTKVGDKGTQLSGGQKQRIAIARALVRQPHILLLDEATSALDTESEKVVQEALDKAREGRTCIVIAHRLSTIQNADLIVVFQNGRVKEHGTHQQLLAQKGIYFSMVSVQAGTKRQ
T1 sequence (P34972 whole entry): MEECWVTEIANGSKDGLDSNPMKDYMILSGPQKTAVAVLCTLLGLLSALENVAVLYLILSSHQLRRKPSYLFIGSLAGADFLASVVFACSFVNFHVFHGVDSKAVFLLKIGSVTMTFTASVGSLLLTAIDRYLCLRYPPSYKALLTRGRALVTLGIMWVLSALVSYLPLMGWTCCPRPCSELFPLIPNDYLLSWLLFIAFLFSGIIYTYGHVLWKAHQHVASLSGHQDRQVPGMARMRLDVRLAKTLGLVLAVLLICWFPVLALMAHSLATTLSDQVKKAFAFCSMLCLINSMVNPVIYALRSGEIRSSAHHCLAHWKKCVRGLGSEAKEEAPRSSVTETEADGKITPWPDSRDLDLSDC

Turning to `NC(=O)[C@@H]1CCCCN1C(=O)c1nn(Cc2ccc(F)cc2)c2ccccc12` [18o], in data set [1], the efflux ratio at 120 min came to 0.39, the Papp A→B at 120 min stood at 72.7 ×10⁻⁶ cm/s and the Papp B→A at 120 min amounted to 29 ×10⁻⁶ cm/s. For the same compound, on P-glycoprotein (P-gp), the “P-gp interaction % at 100 μM” value was 49%. On CB2R [2], the affinity, expressed as Ki, was 54.6 ± 1.1 nM and the “SI Ki CB1R/Ki CB2R” value was above 100. Besides, at CB2R [3], the Emax is 60% and the EC50 amounted to 0.6 ± 0.09 nM. On CB2R [4], a half-maximal effect (EC50) was put at 0.03 ± 0.003 nM and the Emax is 68%. Moreover, at CB2R [5], the “Preferred (biased) pathway MAPK – cAMP” value is reported as “MAPK”, the “Preferred (biased) pathway β-arrestin – MAPK” value (from here on “Preferred … – MAPK”) is recorded as “MAPK” and the “Preferred (biased) pathway β-arrestin – cAMP” value is “G protein”.
Consider `NC(=O)[C@H]1CCCCN1C(=O)c1nn(Cc2ccc(F)cc2)c2ccccc12` [18p], for which, in data set [1], the efflux ratio at 120 min is 0.35, the Papp A→B at 120 min worked out at 63.2 ×10⁻⁶ cm/s and the Papp B→A at 120 min was 21.9 ×10⁻⁶ cm/s. Besides, the EC50 on P-glycoprotein (P-gp) was 56900 nM. Further, the “CB1R % at 1 μM” value at CB1R is 2%. For the same compound, at CB2R [2], the Ki amounted to 120 ± 5 nM and the “SI Ki CB1R/Ki CB2R” value was above 100. In addition, on CB2R [3], the Emax was 58% and the EC50 amounted to 6.8 ± 0.3 nM. On CB2R [4], it took 0.4 ± 0.02 nM to reach a half-maximal effect (EC50) and the Emax was 79%. On CB2R [5], the “Preferred (biased) pathway MAPK – cAMP” value was “MAPK”, the “Preferred … – MAPK” value was “MAPK” and the “Preferred (biased) pathway β-arrestin – cAMP” value was “G protein”.
Regarding `NC(=O)[C@H]1CCCCN1C(=O)c1cn(CC2CCCCC2)c2ccccc12` [18f], in data set [1], the efflux ratio at 120 min amounted to 0.49, the Papp A→B at 120 min stood at 79.2 ×10⁻⁶ cm/s and the Papp B→A at 120 min amounted to 39.3 ×10⁻⁶ cm/s. Further, on P-glycoprotein (P-gp), the EC50 is 61800 nM. The “CB1R % at 1 μM” value on CB1R amounted to 11%. In addition, at CB2R [2], the affinity, expressed as Ki, was 96.8 ± 2.6 nM and the “SI Ki CB1R/Ki CB2R” value is recorded as above 100. Besides, at CB2R [3], the maximum response (Emax) was 55% and the EC50 is 118 ± 4 nM. For the same compound, on CB2R [4], the midpoint of the response, the EC50, lay at 0.07 ± 0.007 nM and the Emax was 94%. On CB2R [5], the “Preferred (biased) pathway MAPK – cAMP” value is “MAPK”, the “Preferred … – MAPK” value was “MAPK” and the “Preferred (biased) pathway β-arrestin – cAMP” value was “β-arrestin”.
For the compound `CCCCCn1nc(C(=O)N2CCCC[C@@H]2C(=O)OC)c2ccccc21` [16j], at CB1R, the “CB1R % at 1 μM” value was determined as 3%. At CB2R [2], the Ki turned out to be 89.1 ± 3.1 nM and the “SI Ki CB1R/Ki CB2R” value is listed as above 100. Further, at CB2R [3], the Emax was 53% and the EC50 stood at 0.09 ± 0.01 nM. At CB2R [4], the EC50 was 0.09 ± 0.003 nM and the Emax stood at 89%. Also, on CB2R [5], the “Preferred (biased) pathway MAPK – cAMP” value is given as “No bias”, the “Preferred … – MAPK” value is given as “MAPK” and the “Preferred (biased) pathway β-arrestin – cAMP” value is listed as “G protein”.
`NC(=O)[C@@H]1CCCCN1C(=O)c1cn(CC2CCCCC2)c2ccccc12` [18e]: in data set [1], the efflux ratio at 120 min came out at 0.51, the Papp A→B at 120 min was found to be 99.5 ×10⁻⁶ cm/s and the Papp B→A at 120 min came out at 50.6 ×10⁻⁶ cm/s. For the same compound, the “P-gp interaction % at 100 μM” value on P-glycoprotein (P-gp) is on record as 30%. The inhibition at 30 min, 1 μM on P-glycoprotein (P-gp) (probe Calcein-AM (2.5 μM), at 1 μM as printed in text) is 30%. Besides, the “CB1R % at 1 μM” value at CB1R is 19%. For the same compound, at CB2R [2], the Ki turned out to be 30.2 ± 1.2 nM and the “SI Ki CB1R/Ki CB2R” value was above 100. On CB2R [3], the Emax is 82% and the EC50 stood at 1701 ± 12 nM. On CB2R [4], the EC50 worked out at 0.09 ± 0.002 nM and the Emax is 74%. Moreover, on CB2R [5], the “Preferred (biased) pathway MAPK – cAMP” value was “MAPK”, the “Preferred … – MAPK” value was “MAPK” and the “Preferred (biased) pathway β-arrestin – cAMP” value is on record as “β-arrestin”.
Regarding `CCCCCn1nc(C(=O)N2CCCC[C@H]2C(=O)OC)c2ccccc21` [16i], at CB1R (displacement of [3H]CP 55,940, membranes of CHO-CB1 C3 cells, n = 3), affinity was put at a Ki of 685 ± 21 nM. In addition, on CB2R [2], the affinity, expressed as Ki, was 10.9 ± 0.5 nM and the “SI Ki CB1R/Ki CB2R” value worked out at 62. Besides, at CB2R [3], the Emax was 64% and the EC50 stood at 0.03 ± 0.01 nM. Also, on CB2R [4], it took 0.38 ± 0.09 nM to reach a half-maximal effect (EC50) and the Emax was 88%. For the same compound, on CB2R [5], the “Preferred (biased) pathway MAPK – cAMP” value is “G protein”, the “Preferred … – MAPK” value is listed as “MAPK” and the “Preferred (biased) pathway β-arrestin – cAMP” value is “G protein”.

Source of the values: publication PMC12406204 (Journal of Medicinal Chemistry, 2025).
